Assay results from patent publication US20240299698A1, “PREVENTION AND TREATMENT OF POST-OPERATIVE COGNITIVE DYSFUNCTION (POCD)” (Noetix Pharma LLC, priority 2022, published 2024).

Experiments:
mouse model of (POCD) [1] = assay: Fear conditioning context testing in laparotomy mouse model of POCD; format: in vivo, Male C57BI/6 mice
Text: (§1) To induce POCD, mice were anesthetized with isoflurane and maintained at a surgical plane of anesthesia (2-2.5%). The abdomen was shaved and cleaned/disinfected with both betadine and ethanol (70%). A 1.5 cm vertical incision was made along the midline of the abdomen, perforating the skin and the peritoneal cavity. A sterile blunt probe was inserted into the cavity, and the abdominal viscera and musculature were manipulated for five minutes. Abdominal muscles and skin were sutured, polysporin and topical lidocaine were applied to the incision site, and buprenorphine (0.1 mg/kg s.c.) was administered. Animals were placed into a clean, pre-warmed home cage for recovery and housed singly thereafter.
(§2) Fear conditioning is a commonly used test of associative learning where a […] stimulus is paired with an aversive unconditioned stimulus, resulting in a freezing response that can be subsequently quantified. Training occurred on the day prior to surgery, context testing on PSD1 (i.e., 2 days after training) and PSD3 (i.e., 4 days after training), and cued testing on PSD3 at a time point three hours after the final context test. For training and context testing, mice were placed in an operant chamber (Med Associates). For cued testing, mice were placed into a novel arena with novel external environment and scent.
(§3) Fear conditioning training was performed to generate an association between a neutral “conditional” stimulus (80 dB tone) with an aversive “unconditional” stimulus (0.4 mA shock). Before training, the system was tested to confirm proper operation of the shock and tone. During training, the testing environment was kept quiet and well controlled. Temperature and humidity levels were kept constant and the experimenter was not visible from the operant chamber, which was cleaned between animals. The training protocol was as follows: 1. Each mouse was habituated to the testing room for 20 minutes. 2. Video recording was initiated and the animal's ID card was recorded. 3. Each mouse was placed into the operant chamber and the training protocol was implemented as follows: a. 120 seconds; no stimuli (habituation to the chamber); b. 20 seconds, tone presentation (80 dB); c. 20 seconds, no stimuli (trace delay period); d. 2 seconds, foot shock (0.4 mA); e. 90 seconds, no stimuli (intertrial interval); f. repeat steps a-d followed by a final 30 second no stimuli period. 4. The mouse was returned to its home cage.
The purpose of context testing is to evaluate context memory for an aversive environment. Materials for this process included the operant testing chamber, a video recorder, a stopwatch, and data recording sheets. During the testing process the testing environment was kept quiet and well controlled with constant temperature and humidity levels. It was ensured that the experimenter was not visible from the operant chamber. The chamber was cleaned between animals.
Context testing was performed as follows: 1. The mouse was habituated to the testing room for 15 minutes. 2. Video recording was initiated and the animal's ID card recorded. 3. The mouse was placed in the operation chamber and allow ed 270 seconds exploration time. 4. The mouse was returned to its home cage.
Fear conditioning context testing was performed on PSD1 and PSD3, with exposure to the contextual environment presented at the equivalent time of day to the training period in the same arena as was used for training. On PSD3, following the final contextual testing, the cued testing phase was performed. […]

mouse model of (POCD) [2] = assay: Fear conditioning cued testing in laparotomy mouse model of POCD; format: in vivo, Male C57BI/6 mice; details: PSD3
Text: as §1, §2, §3
The purpose of cued testing is to evaluate cued memory for an aversive stimulus. […]
Cued testing was performed as follows: 1. […] Video recording was initiated and the animal's ID card was recorded. […]

## Cc1ccc(=O)n(-c2ccccc2)c1 [pirfenidone, 5-methyl-1-phenyl-2-(1H)-pyridone]
Mouse model of (POCD) [1]; Acute (400 mg/kg p.o. single presurgical dose), p=0.009, paired t-test
  time spent freezing, contextual test, within-group PSD3 compared to PSD1: less time freezing
Mouse model of (POCD) [1]; Chronic (400 mg/kg initial; 200 mg/kg p.o. 1x/day), p=0.942, paired t-test
  time spent freezing, contextual test, within-group PSD3 compared to PSD1: no difference between test presentation days
Mouse model of (POCD) [1]; PSD1, Acute (400 mg/kg p.o. single presurgical dose) compared to Chronic pirfenidone animals, p=0.027, LSD post-hoc
  time spent freezing, contextual test: increased freezing
Mouse model of (POCD) [1]; PSD3, Acute (400 mg/kg p.o. single presurgical dose) vs Normal Controls
  time spent freezing, contextual test: performed equivalently to Normal Controls
Mouse model of (POCD) [1]; PSD3, Acute and Chronic groups and controls, p=0.671, One-way ANOVA
  time spent freezing, contextual test, between groups: no statistical difference between groups
Mouse model of (POCD) [2]; Acute (400 mg/kg p.o. single dose) compared to Chronic pirfenidone and Disease controls, longer freeze times
  freezing during cued testing (overall measures): increased mean performance
Mouse model of (POCD) [2]; Acute compared to Disease Control mice, longer freeze times
  freezing time, cued testing, post-tone period: increased mean performance
Mouse model of (POCD) [2]; Chronic (400 mg/kg initial; 200 mg/kg p.o. 1x/day)
  freezing during cued testing (overall measures): performed more similarly to Disease Control
Mouse model of (POCD) [2]; Chronic vs Normal Controls, p=0.088
  freezing time, cued testing, post-tone period: trend toward decreased freezing times
